This assay relates to BDF1 mice, colon carcinoma 38 sc, T/C %. In words: NCI In Vivo Anticancer Drug Screen. Data for tumor model Colon Carcinoma 38 (subcutaneous) in B6D2F1 (BDF1) mice. The procedure, abridged: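 Compound antitumor activity was assessed in mice carrying transplantable tumors. Survival or tumor size was recorded, and each value is the treated-group measurement divided by that of the vehicle-treated control group.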

Setting [1] is: endpoint: median tumor weight (est.), dose: 1.56 mg/kg/injection, schedule: Q07DX002 (ip), vehicle: saline with Tween-80, higher = larger tumour.
Where [2] appears, read: endpoint: median tumor weight (est.), dose: 50.0 mg/kg/injection, schedule: Q07DX002 (ip), vehicle: saline with Tween-80, higher = larger tumour.
Setting [3] is: endpoint: median tumor weight (est.), dose: 50.0 mg/kg/injection, schedule: Q07DX002 (ip), vehicle: saline, higher = larger tumour.
Setting [4] is: endpoint: median tumor weight (est.), dose: 100.0 mg/kg/injection, schedule: Q07DX002 (ip), vehicle: saline, higher = larger tumour.
Setting [5] is: endpoint: median tumor weight (est.), dose: 200.0 mg/kg/injection, schedule: Q07DX002 (ip), vehicle: saline, higher = larger tumour.

Where “and” joins values, the source holds several entries; their conditions need not be identical. Identical values can stand only once. Inconclusive results are not listed.

For `CCCCCCCCSC1=C(Cl)C(=O)C(OC)=C(OC)C1=O`, the T/C under setting [1] is 94 % of control and 95 % of control.

`c1ccc2c(c1)-c1ccccc1C1NC21` (stereo unspecified): the T/C (endpoint: median tumor weight (est.), dose: 12.0 mg/kg/injection, schedule: Q07DX002 (ip), vehicle: saline with Tween-80, higher = larger tumour) was 104 % of control; the T/C (endpoint: median tumor weight (est.), dose: 25.0 mg/kg/injection, schedule: Q07DX002 (ip), vehicle: saline with Tween-80, higher = larger tumour) was 117 % of control; the T/C under setting [2] is 93 % of control.

For the compound `Nc1nc2c(ncn2C2OC(CO)C(O)C2N)c(=O)[nH]1` (stereo unspecified), the T/C under setting [2] is 73 % of control and the T/C (endpoint: median tumor weight (est.), dose: 100.0 mg/kg/injection, schedule: Q07DX002 (ip), vehicle: saline with Tween-80, higher = larger tumour) was 74 % of control.

Consider `C[N+](C)(C)c1ncnc2nc[nH]c12`, for which the T/C is 83 % of control (endpoint: median tumor weight (est.), dose: 25.0 mg/kg/injection, schedule: Q07DX002 (ip), vehicle: saline, higher = larger tumour); 77 % of control and 98 % of control under setting [3]; 96 % of control and 100 % of control under setting [4]; 75 % of control and 85 % of control under setting [5].

As for `CCC1=C[C@H]2CN(CCc3c([nH]c4ccccc34)[C@@](C(=O)OC)(c3cc4c(cc3OC)N(C)[C@H]3[C@@](O)(C(=O)OC)[C@H](OC(C)=O)[C@]5(CC)C=CCN6CC[C@]43[C@@H]65)C2)C1`, the T/C (endpoint: median tumor weight (est.), dose: 4.0 mg/kg/injection, schedule: Q07DX002 (ip), vehicle: water, higher = larger tumour) was 75 % of control and 82 % of control.

For the compound `CN(CCN(C)C(=O)CCOS(C)(=O)=O)C(=O)CCOS(C)(=O)=O`, the T/C is 75 % of control and 94 % of control under setting [3]; 48 % of control and 63 % of control under setting [4]; 25 % of control and 43 % of control under setting [5].

As for `CN(C)CCN1C(=O)c2cccc3cc([N+](=O)[O-])cc(c23)C1=O`, the T/C under setting [1] is 93 % of control; the T/C (endpoint: median tumor weight (est.), dose: 3.13 mg/kg/injection, schedule: Q07DX002 (ip), vehicle: saline with Tween-80, higher = larger tumour) was 90 % of control; the T/C (endpoint: median tumor weight (est.), dose: 6.25 mg/kg/injection, schedule: Q07DX002 (ip), vehicle: saline with Tween-80, higher = larger tumour) is 70 % of control; the T/C (endpoint: median tumor weight (est.), dose: 12.5 mg/kg/injection, schedule: Q07DX002 (ip), vehicle: saline with Tween-80, higher = larger tumour) is 56 % of control.

Take `Nc1ccc2c(c1)CN1C(=O)c3ccccc3C1=N2`: the T/C was 96 % of control (endpoint: median survival time, dose: 60.0 mg/kg/injection, schedule: Q07DX002 (oral), vehicle: saline with Tween-80, higher = longer survival); 103 % of control (endpoint: median survival time, dose: 100.0 mg/kg/injection, schedule: Q01DX008 (oral), vehicle: saline with Tween-80, higher = longer survival); 96 % of control (endpoint: median survival time, dose: 200.0 mg/kg/injection, schedule: Q01DX008 (oral), vehicle: saline with Tween-80, higher = longer survival); 90 % of control (endpoint: median survival time, dose: 800.0 mg/kg/injection, schedule: Q07DX002 (oral), vehicle: saline with Tween-80, higher = longer survival); 97 % of control (endpoint: median survival time, dose: 1000.0 mg/kg/injection, schedule: Q07DX002 (oral), vehicle: saline with Tween-80, higher = longer survival); 50 % of control (endpoint: median tumor weight (est.), dose: 50.0 mg/kg/injection, schedule: Q07DX002 (ip), vehicle: DMSO, higher = larger tumour). Also, the T/C (endpoint: median tumor weight (est.), dose: 100.0 mg/kg/injection, schedule: Q07DX002 (ip), vehicle: other, higher = larger tumour) was 13 % of control; the T/C (endpoint: median tumor weight (est.), dose: 103.7 mg/kg/injection, schedule: Q01DX005 (oral), vehicle: saline with Tween-80, higher = larger tumour) was 52 % of control; the T/C (endpoint: median tumor weight (est.), dose: 129.6 mg/kg/injection, schedule: Q06HX004 (oral), vehicle: saline with Tween-80, higher = larger tumour) is 26 % of control; the T/C (endpoint: median tumor weight (est.), dose: 172.8 mg/kg/injection, schedule: Q01DX005 (oral), vehicle: saline with Tween-80, higher = larger tumour) is 52 % of control; the T/C (endpoint: median tumor weight (est.), dose: 200.0 mg/kg/injection, schedule: Q07DX002 (oral), vehicle: saline with Tween-80, higher = larger tumour) was 27 % of control; the T/C (endpoint: median tumor weight (est.), dose: 216.0 mg/kg/injection, schedule: Q06HX004 (oral), vehicle: saline with Tween-80, higher = larger tumour) is 16 % of control. Also, the T/C reads like this: (endpoint: median tumor weight (est.), dose: 288.0 mg/kg/injection, schedule: Q01DX005 (oral), vehicle: saline with Tween-80, higher = larger tumour) 7 % of control; (endpoint: median tumor weight change, dose: 70.4 mg/kg/injection, schedule: Q01DX009 (oral), vehicle: saline with Tween-80, higher = larger tumour) 13 % of control; (endpoint: median tumor weight change, dose: 105.6 mg/kg/injection, schedule: Q01DX005 (oral), vehicle: saline with Tween-80, higher = larger tumour) 68 % of control; (endpoint: median tumor weight change, dose: 105.6 mg/kg/injection, schedule: Q01DX009 (oral), vehicle: saline with Tween-80, higher = larger tumour) 42 % of control; (endpoint: median tumor weight change, dose: 158.3 mg/kg/injection, schedule: Q01DX005 (oral), vehicle: saline with Tween-80, higher = larger tumour) -5 % of control; (endpoint: median tumor weight change, dose: 158.3 mg/kg/injection, schedule: Q01DX009 (oral), vehicle: saline with Tween-80, higher = larger tumour) -40 % of control. Further, the T/C is, setting by setting: (endpoint: median tumor weight change, dose: 158.3 mg/kg/injection, schedule: Q06HX002 (oral), vehicle: saline with Tween-80, higher = larger tumour) 71 % of control; (endpoint: median tumor weight change, dose: 158.3 mg/kg/injection, schedule: Q06HX004 (oral), vehicle: saline with Tween-80, higher = larger tumour) 60 % of control; (endpoint: median tumor weight change, dose: 158.3 mg/kg/injection, schedule: Q07DX003 (oral), vehicle: saline with Tween-80, higher = larger tumour) 24 % of control; (endpoint: median tumor weight change, dose: 237.0 mg/kg/injection, schedule: Q08DX002 (oral), vehicle: saline with Tween-80, higher = larger tumour) 33 % of control; (endpoint: median tumor weight change, dose: 237.4 mg/kg/injection, schedule: Q01DX005 (oral), vehicle: saline with Tween-80, higher = larger tumour) -60 % of control; (endpoint: median tumor weight change, dose: 237.4 mg/kg/injection, schedule: Q06HX002 (oral), vehicle: saline with Tween-80, higher = larger tumour) 37 % of control. For the same compound, the T/C runs as follows: (endpoint: median tumor weight change, dose: 237.4 mg/kg/injection, schedule: Q06HX004 (oral), vehicle: saline with Tween-80, higher = larger tumour) 36 % of control; (endpoint: median tumor weight change, dose: 237.4 mg/kg/injection, schedule: Q07DX002 (oral), vehicle: saline with Tween-80, higher = larger tumour) 80 % of control; (endpoint: median tumor weight change, dose: 237.4 mg/kg/injection, schedule: Q07DX003 (oral), vehicle: saline with Tween-80, higher = larger tumour) 69 % of control; (endpoint: median tumor weight change, dose: 355.9 mg/kg/injection, schedule: Q01DX001 (oral), vehicle: saline with Tween-80, higher = larger tumour) 68 % of control; (endpoint: median tumor weight change, dose: 355.9 mg/kg/injection, schedule: Q01DX005 (oral), vehicle: saline with Tween-80, higher = larger tumour) -88 % of control; (endpoint: median tumor weight change, dose: 355.9 mg/kg/injection, schedule: Q06HX002 (oral), vehicle: saline with Tween-80, higher = larger tumour) 48 % of control and 66 % of control. The T/C reads like this: (endpoint: median tumor weight change, dose: 355.9 mg/kg/injection, schedule: Q06HX004 (oral), vehicle: saline with Tween-80, higher = larger tumour) -13 % of control; (endpoint: median tumor weight change, dose: 355.9 mg/kg/injection, schedule: Q07DX002 (oral), vehicle: saline with Tween-80, higher = larger tumour) 23 % of control; (endpoint: median tumor weight change, dose: 355.9 mg/kg/injection, schedule: Q07DX003 (oral), vehicle: saline with Tween-80, higher = larger tumour) 55 % of control; (endpoint: median tumor weight change, dose: 355.9 mg/kg/injection, schedule: Q08DX002 (oral), vehicle: saline with Tween-80, higher = larger tumour) 33 % of control; (endpoint: median tumor weight change, dose: 533.6 mg/kg/injection, schedule: Q01DX001 (oral), vehicle: saline with Tween-80, higher = larger tumour) 66 % of control; (endpoint: median tumor weight change, dose: 533.6 mg/kg/injection, schedule: Q06HX002 (oral), vehicle: saline with Tween-80, higher = larger tumour) -46 % of control and -38 % of control. Also, the T/C (endpoint: median tumor weight change, dose: 533.6 mg/kg/injection, schedule: Q06HX004 (oral), vehicle: saline with Tween-80, higher = larger tumour) is -50 % of control; the T/C (endpoint: median tumor weight change, dose: 533.6 mg/kg/injection, schedule: Q07DX002 (oral), vehicle: saline with Tween-80, higher = larger tumour) was 52 % of control; the T/C (endpoint: median tumor weight change, dose: 533.6 mg/kg/injection, schedule: Q07DX003 (oral), vehicle: saline with Tween-80, higher = larger tumour) was 34 % of control; the T/C (endpoint: median tumor weight change, dose: 533.6 mg/kg/injection, schedule: Q08DX002 (oral), vehicle: saline with Tween-80, higher = larger tumour) is 34 % of control; the T/C (endpoint: median tumor weight change, dose: 800.0 mg/kg/injection, schedule: Q01DX001 (oral), vehicle: saline with Tween-80, higher = larger tumour) was 47 % of control; the T/C (endpoint: median tumor weight change, dose: 800.0 mg/kg/injection, schedule: Q06HX002 (oral), vehicle: saline with Tween-80, higher = larger tumour) is -87 % of control and -85 % of control. Further, the T/C (endpoint: median tumor weight change, dose: 800.0 mg/kg/injection, schedule: Q06HX004 (oral), vehicle: saline with Tween-80, higher = larger tumour) was -99 % of control; the T/C (endpoint: median tumor weight change, dose: 800.0 mg/kg/injection, schedule: Q07DX002 (oral), vehicle: saline with Tween-80, higher = larger tumour) is 1 % of control; the T/C (endpoint: median tumor weight change, dose: 800.0 mg/kg/injection, schedule: Q07DX003 (oral), vehicle: saline with Tween-80, higher = larger tumour) is -10 % of control; the T/C (endpoint: median tumor weight change, dose: 800.0 mg/kg/injection, schedule: Q08DX002 (oral), vehicle: saline with Tween-80, higher = larger tumour) was -14 % of control; the T/C (endpoint: median tumor weight change, dose: 1199.4 mg/kg/injection, schedule: Q01DX001 (oral), vehicle: saline with Tween-80, higher = larger tumour) was 39 % of control; the T/C (endpoint: median tumor weight change, dose: 1199.4 mg/kg/injection, schedule: Q08DX002 (oral), vehicle: saline with Tween-80, higher = larger tumour) was -36 % of control.
